Measurements published in patent EP0048954A2, “Beta-lactam compounds, process for the preparation thereof and intermediate products for the preparation thereof” (SAGAMI CHEMICAL RESEARCH CENTER, priority 1980, dated 1982).
Values after ≈ are worked out from the molar mass of the structure shown.

What was measured:
Test in all cases: Antibacterial activity, minimum inhibition concentration (method of The Chemotherapy Association, Japan)
Format in all cases: cell-based
[1] = tested on: Proteus vulgaris OX-19; settings: Proteus vulgaris, OX19, strain H: Proteus vulgaris OX-19; read-out: minimum inhibition concentration
Text: (§1) The abbreviations A to P will be used in the following Tables 2 to 8.
(§2) Test results are shown in terms of the minimum inhibition concentration (µg/mℓ.) in the following Tables 2 to 8.

[2] = tested on: Proteus rettgeri NIH-96; settings: Providencia rettgeri, NIH96, strain I: Proteus rettgeri NIH-96; read-out: minimum inhibition concentration
Text: as §1, §2

[3] = tested on: Klebsiella pneumoniae; settings: Klebsiella pneumoniae, strain C: Klebsiella pneumoniae; read-out: minimum inhibition concentration
Protocol: (§3) Antibacterial activities of the compounds according to this invention, which had been prepared in the preceding Examples, were measured according to the method prescribed by The Committee of Amendment of "The method for measurement of the minimum inhibition concentration", The Chemotherapy Association, Japan (See Chemotherapy, Vol. 22, No. 6, pp. 1126 - 1128 (1974) and Vol. 29, No. 1, pp. 76 - 79 (1981)).
as §1, §2

[4] = tested on: Salmonella typhimurium 3173; settings: Salmonella enterica, TYPHIMURIUM, strain D: Salmonella typhimurium 3173; read-out: minimum inhibition concentration
Protocol: as §3, §1, §2

[5] = tested on: Serratia marcescens IFO-3736; settings: Serratia marcescens, IFO3736, strain F: Serratia marcescens IFO-3736; read-out: minimum inhibition concentration
Protocol: as §3, §1, §2

[6] = tested on: Proteus morgani Kono; settings: strain J: Proteus morgani Kono; read-out: minimum inhibition concentration
Protocol: as §3, §1, §2

[7] = tested on: Citrobactor freundii NIH-10018 -68; settings: strain O: Citrobactor freundii NIH-10018 -68; read-out: minimum inhibition concentration
Protocol: as §3, §1, §2

[8] = tested on: Escherichia coli NIHJ; settings: Escherichia coli, strain K: Escherichia coli NIHJ; read-out: minimum inhibition concentration
Protocol: as §3, §1, §2

[9] = tested on: Staphylococcus aureus 6538-P; settings: strain A: Staphylococcus aureus 6538-P; read-out: minimum inhibition concentration
Protocol: as §3, §1, §2

[10] = tested on: Bacillus subtilis ATCC 6633; settings: for MIC: Bacillus subtilis, ATCC6633, strain B: Bacillus subtilis ATCC 6633, read-out: minimum inhibition concentration
Protocol: as §3, §1, §2

[11] = tested on: Enterobactor cloacae NCTC-9394; settings: strain N: Enterobactor cloacae NCTC-9394; read-out: minimum inhibition concentration
Protocol: as §3, §1, §2

[12] = tested on: Pseudomonas aeruginosa NCTC-10490; settings: Pseudomonas aeruginosa, NCTC10490, strain M: Pseudomonas aeruginosa NCTC-10490; read-out: minimum inhibition concentration
Protocol: as §3, §1, §2

[13] = tested on: Serratia marcescens 1023; settings: Serratia marcescens, 1023, strain E: Serratia marcescens 1023; read-out: minimum inhibition concentration
Protocol: as §3, §1, §2

[14] = tested on: Escherichia coli NIHJC-2; settings: Escherichia coli, NIHJC2, strain L: Escherichia coli NIHJC-2; read-out: minimum inhibition concentration
Protocol: as §3, §1, §2

[15] = tested on: Proteus mirabillis B-30-2 IFO-3849; settings: strain G: Proteus mirabillis B-30-2 IFO-3849; read-out: minimum inhibition concentration
Protocol: as §3, §1, §2

| SMILES | MIC [1] | MIC [2] | MIC [3] | MIC [4] | MIC [5] | MIC [6] | MIC [7] | MIC [8] | MIC [9] | MIC [10] | MIC [11] | MIC [12] | MIC [13] | MIC [14] | MIC [15] | minimum inhibition concentration ([10]; strain B: Bacillus subtilis ATCC 6633) |
| --- | --- | --- | --- | --- | --- | --- | --- | --- | --- | --- | --- | --- | --- | --- | --- | --- |
| CC(=O)OCC1=C(C(=O)O)N2C(=O)C(NC(=O)C(=C(Cl)Cl)c3ccc(NC(=O)OC(C)(C)C)cc3)C2SC1 (stereo not drawn) [4-(1), 7-[2-dichloromethylene-2-(4-tert-butoxycarbonyl-aminophenyl)acetamido]-3-acetoxymethyl-3-cephem-4-carboxylic acid] | > 100 µg/mL | 6.25 µg/mL (≈ 10.7 µM) | > 100 µg/mL | > 100 µg/mL | > 100 µg/mL | > 100 µg/mL | > 100 µg/mL | 6.25 µg/mL (≈ 10.7 µM) | 0.39 µg/mL (≈ 0.665 µM) | 6.25 µg/mL (≈ 10.7 µM) | > 100 µg/mL | 50 µg/mL (≈ 85.3 µM) | 6.25 µg/mL (≈ 10.7 µM) | > 100 µg/mL | > 100 µg/mL |  |
| Cn1nnnc1SCC1=C(C(=O)O)N2C(=O)C(NC(=O)C(=C(Cl)Cl)c3csc(N)n3)C2SC1 (stereo not drawn) [6-(2), 7-[2-dichloromethylene-2-(2-aminothiazol-4-yl)-acetamido]-3-(l-methyl-lH-tetrazol-5-yl)thiomethyl-3-cephem-4-carboxylic acid] | 0.1 µg/mL (≈ 0.182 µM) | < 0.025 µg/mL | 12.5 µg/mL (≈ 22.8 µM) | 6.25 µg/mL (≈ 11.4 µM) | 25 µg/mL (≈ 45.5 µM) | 6.25 µg/mL (≈ 11.4 µM) | 6.25 µg/mL (≈ 11.4 µM) | < 0.025 µg/mL | 0.78 µg/mL (≈ 1.42 µM) |  | 1.56 µg/mL (≈ 2.84 µM) | 3.12 µg/mL (≈ 5.69 µM) | 12.5 µg/mL (≈ 22.8 µM) | 12.5 µg/mL (≈ 22.8 µM) | 12.5 µg/mL (≈ 22.8 µM) | 6.25 µg/mL (≈ 11.4 µM) |
| CC(=O)OCC1=C(C(=O)O)N2C(=O)C(NC(=O)C(=C(Cl)Cl)c3ccc(Cl)s3)[C@H]2SC1 (stereo partly drawn) [Compound 31, 7-[2-dichloromethylene-2-(5-chloro-2-thienyl)acetamido]-3-acetoxymethyl-3-cephem-4-carboxylic acid] | 100 µg/mL (≈ 195 µM) | 1.56 µg/mL (≈ 3.05 µM) | > 100 µg/mL | > 100 µg/mL | > 100 µg/mL | > 100 µg/mL | > 100 µg/mL | 25 µg/mL (≈ 48.8 µM) | 0.2 µg/mL (≈ 0.391 µM) | 6.25 µg/mL (≈ 12.2 µM) | > 100 µg/mL | 100 µg/mL (≈ 195 µM) | 100 µg/mL (≈ 195 µM) | > 100 µg/mL | > 100 µg/mL |  |
| CC(=O)OCC1=C(C(=O)O)N2C(=O)C(NC(=O)C(=C(Cl)Cl)c3csc(NC(=O)OC(C)(C)C)n3)C2SC1 (stereo not drawn) [5-(1), 7-[2-dichloromethylene-2-(2-tert-butoxycarbonyl-aminothiazol-4-yl)acetamido]-3-acetoxymethyl-3-cephem-4-carboxylic acid] | 0.39 µg/mL (≈ 0.657 µM) | < 0.025 µg/mL | 12.5 µg/mL (≈ 21.1 µM) | 12.5 µg/mL (≈ 21.1 µM) | 12.5 µg/mL (≈ 21.1 µM) | 12.5 µg/mL (≈ 21.1 µM) | 25 µg/mL (≈ 42.1 µM) | 0.1 µg/mL (≈ 0.169 µM) | 1.56 µg/mL (≈ 2.63 µM) | 25 µg/mL (≈ 42.1 µM) | 12.5 µg/mL (≈ 21.1 µM) | 12.5 µg/mL (≈ 21.1 µM) | 25 µg/mL (≈ 42.1 µM) | 25 µg/mL (≈ 42.1 µM) | 12.5 µg/mL (≈ 21.1 µM) |  |
| Cn1nnnc1SCC1=C(C(=O)O)N2C(=O)C(NC(=O)C(=CCl)c3cccs3)C2SC1 (stereo not drawn) [Compound 34, 7-[2-chloromethylene-2-(2-thienyl)acetamido]-3-(l-methyl-lH-tetrazol-5-yl)thiomethyl-3-cephem-4-carboxylic acid] | 12.5 µg/mL (≈ 25.1 µM) | 0.05 µg/mL (≈ 0.1 µM) | 100 µg/mL (≈ 200 µM) | 12.5 µg/mL (≈ 25.1 µM) | 100 µg/mL (≈ 200 µM) | 100 µg/mL (≈ 200 µM) | 100 µg/mL (≈ 200 µM) | 1.56 µg/mL (≈ 3.13 µM) | 25 µg/mL (≈ 50.1 µM) | 0.78 µg/mL (≈ 1.56 µM) | 12.5 µg/mL (≈ 25.1 µM) | 100 µg/mL (≈ 200 µM) | 1.56 µg/mL (≈ 3.13 µM) | 25 µg/mL (≈ 50.1 µM) | 100 µg/mL (≈ 200 µM) |  |
